A short description of data set [1]: Stated solid-state and physicochemical properties of the salt (no method described). The settings on record: qualitative statement, no conditions given.
Data set [2] addresses T1, human NHE-1 (Homo sapiens, UniProt P19634).
T1 construct: expressed in transfected cells; host or cells: LAP-1 (parental line without endogenous NHE activity), G418 selection
Nature of the data set: FLIPR assay of pHi recovery in transfected LAP-1 cell lines expressing human NHE-1. The note with it: transfected cells expressing human NHE-1, read-out: NHE1 inhibition IC50. The format is cell-based. The protocol: The inhibitory concentration IC50 for NHE-1 inhibition was determined as follows:
The NHE-1 inhibition IC50 was determined in an FLIPR assay by measurement of the recovery in pHi in transfected cell lines which express human NHE-1.
The assay was carried out in an FLIPR (fluorescent imaging plate reader) with black-walled 96-well microtiter plates having clear bases.
The growth medium for the transfected cells (Iscove+10% fetal calf serum) additionally contained G418 as a selection antibiotic in order to ensure the presence of the transfected sequences.
The actual assay started with the removal of the growth medium and addition of 100 μl of loading buffer per well (5 μM BCECF-AM [2′,7′-bis(carboxyethyl)-5- (and -6-)carboxyfluorescein, acetoxymethyl ester] in 20 mM NH4Cl, 115 mM choline chloride, 1 mM MgCl2, 1 mM CaCl2, 5 mM KCl, 20 mM HEPES, 5 mM glucose; pH 7.4 [adjusted with KOH]). The cells were then incubated at 37° C. for 20 minutes. This incubation led to loading of the cells with the fluorescent dye whose fluorescence intensity depends on pHi, and with NH4Cl which makes the cells slightly alkaline.
The nonfluorescent dye precursor BCECF-AM is, as the ester, membrane-permeable. Inside the cell, esterases release the actual BCECF dye which is membrane-impermeable. […]

T1 sequence (P19634 whole entry): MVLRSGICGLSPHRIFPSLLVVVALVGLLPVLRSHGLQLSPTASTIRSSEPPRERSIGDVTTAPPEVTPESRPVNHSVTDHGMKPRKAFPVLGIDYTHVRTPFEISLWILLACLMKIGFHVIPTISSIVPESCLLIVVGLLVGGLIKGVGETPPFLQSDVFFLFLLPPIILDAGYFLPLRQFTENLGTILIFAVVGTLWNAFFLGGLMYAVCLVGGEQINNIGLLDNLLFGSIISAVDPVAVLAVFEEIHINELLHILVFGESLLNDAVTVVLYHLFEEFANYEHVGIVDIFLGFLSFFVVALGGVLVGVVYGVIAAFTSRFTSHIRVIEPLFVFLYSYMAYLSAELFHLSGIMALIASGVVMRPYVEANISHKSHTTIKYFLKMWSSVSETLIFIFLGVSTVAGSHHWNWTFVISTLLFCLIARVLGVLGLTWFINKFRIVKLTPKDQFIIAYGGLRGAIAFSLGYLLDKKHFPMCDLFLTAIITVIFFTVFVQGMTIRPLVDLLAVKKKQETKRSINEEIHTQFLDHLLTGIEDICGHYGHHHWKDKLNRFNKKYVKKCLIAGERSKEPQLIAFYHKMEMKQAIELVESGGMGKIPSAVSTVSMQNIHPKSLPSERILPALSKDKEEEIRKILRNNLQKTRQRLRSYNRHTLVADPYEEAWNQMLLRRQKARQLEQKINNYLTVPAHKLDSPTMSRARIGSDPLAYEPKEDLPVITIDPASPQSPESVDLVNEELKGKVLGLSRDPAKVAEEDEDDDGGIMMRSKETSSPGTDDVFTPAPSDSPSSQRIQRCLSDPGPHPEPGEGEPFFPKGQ

Take `NC(N)=NC(=O)C[C@H]1c2cc(C(F)(F)F)ccc2C(=O)N1CC(F)(F)F.O=C(O)/C=C/C(=O)O` [(S)-N-{2-[3-Oxo-2-(2,2,2-trifluoroethyl)-6-trifluoromethyl-2,3-dihydro-1H-isoindol-1-yl]-acetyl}guanidine hydrogenfumarate hydrate]: in data set [1], the hygroscopicity entry is given as “particularly low hygroscopicity”, the solubility entry is listed as “good solubility” and the tendency to racemization entry was “low tendency to racemization”.
With `NC(N)=NC(=O)C[C@H]1c2cc(C(F)(F)F)ccc2C(=O)N1CC(F)(F)F` [(S)-N-{2-[3-Oxo-2-(2,2,2-trifluoroethyl)-6-trifluoromethyl-2,3-dihydro-1H-isoindol-1-yl]-acetyl}guanidine], in data set [2], the IC50 came to 300 pM.

These data come from patent US7531569B2, “Process for preparing (3-oxo-2,3-dihydro-1H-isoindol-1-yl) acetylguanidine derivatives” (sanofi-aventis Deutschland GmbH, priority 2003, dated 2009).
